Results taken from patent US8329645B2, “Polymyxin derivatives and uses thereof” (priority 2008, dated 2012).

What was measured:
[1] = test system: Ps. aeruginosa ATCC 27853; test: Sensitization to rifampin: growth inhibition around wells on LB plates containing rifampin; assay type: cell-based, Pseudomonas aeruginosa; details: 4 μg
[2] = test system: A. baumannii ATCC 19606; test: as above; assay type: cell-based, Acinetobacter baumannii; details: 4 μg
[3] = test system: Acinetobacter baumannii ATCC 19606; test: Growth inhibition around wells on LB agar plates; assay type: cell-based; details: A. baumannii ATCC 19606
Protocol: (§1) From an overnight-grown culture of IH3080 on LB agar, a suspension of approx. 10^8 cells/ml was prepared in 0.9% NaCl. Aliquots of this suspension were then pipetted on the agar plates and the plates were gently shaken to spread the suspension evenly on the entire surface of the plate. Thereafter, the unabsorbed part of the suspension was removed by using a Pasteur pipette. After the surface had dried, small wells (diameter, 2 mm) were drilled on the plates (five wells per plate) by using a sterile sharp-edged narrow metal tube, single-use pipette tip, and vacuum suction. An alternative method used a swab to spread the inoculum. […] Controls included 0.9% NaCl solution without the compound to be tested. The plates were then incubated for 18 h at 37° C. whereafter the diameters of growth inhibition zones around each well were measured; the diameter of the well itself was not reduced. Finally, the diameters were converted to surface areas of growth inhibition (in square mm).
(§2) Direct antibacterial activity of sixteen NAB compounds against Acinetobacter baumannii ATCC 19606 and Pseudomonas aeruginosa ATCC 27853 was tested by using the susceptibility determination method described in Example 2. Five compounds (NAB7062, NAB734, NAB737, NAB739, and NAB740) had very notable activity against A. baumannii. […] The antibacterial activity of NAB739 and NAB740 were as strong as or even stronger than that of polymyxin B.

[4] = test system: E. coli IH3080; test: Sensitization to rifampin: growth inhibition around wells on LB plates containing rifampin; assay type: cell-based, Escherichia coli; details: 4 μg of compound
Protocol: (§3) From an overnight-grown culture of IH3080 on LB agar, a suspension of approx. 10^8 cells/ml was prepared in 0.9% NaCl. Aliquots of this suspension were then pipetted on the agar plates and the plates were gently shaken to spread the suspension evenly on the entire surface of the plate. Thereafter, the unabsorbed part of the suspension was removed by using a Pasteur pipette. After the surface had dried, small wells (diameter, 2 mm) were drilled on the plates (five wells per plate) by using a sterile sharp-edged narrow metal tube, single-use pipette tip, and vacuum suction. An alternative method used a swab to spread the inoculum. Samples (4 μl and 10 μl) of the peptide solution in 0.9% NaCl (at concentrations of 1 μg/ml and 0.1 μg/ml) were then pipetted to the wells and the sample fluids were allowed to absorb. Controls included 0.9% NaCl solution without the compound to be tested. The plates were then incubated for 18 h at 37° C. whereafter the diameters of growth inhibition zones around each well were measured; the diameter of the well itself was not reduced. Finally, the diameters were converted to surface areas of growth inhibition (in square mm).

[5] = test system: E. coli IH3080; test: Growth inhibition around wells on LB agar plates; assay type: cell-based, Escherichia coli
Protocol: Peptides synthesized in Example 1, all carrying at least two (2) but not more than three (3) positive charges, were studied for their ability to inhibit the growth of E. coli. This was tested employing LB agar (LB Agar Lennox, Difco, BD, Sparks, Md., U.S.A) plates. The indicator organism E. coli IH3080 (K1:O018) was an encapsulated strain originally isolated from a neonate suffering from meningitis (Vaara et al. 1984) and obtained from National Public Health Institute, Helsinki, Finland.
as §1

[6] = test system: Pseudomonas aeruginosa ATCC 27853; test: Growth inhibition around wells on LB agar plates; assay type: cell-based; details: Ps. aeruginosa ATCC 27853
Protocol: as §3, §2

## DA-cy[Dab-Dab-DPhe-Leu-Dab-Dab-Thr-] [NAB 736]
[1]; rifampin 0 μg/ml
  growth inhibition around a well in the presence of rifampin: 38 square millimeters
[1]; rifampin 0.1 μg/ml
  growth inhibition around a well in the presence of rifampin: 38 square millimeters
[1]; rifampin 0.3 μg/ml
  growth inhibition around a well in the presence of rifampin: 38 square millimeters
[2]; rifampin 0 μg/ml
  growth inhibition around a well in the presence of rifampin: 0 square millimeters
[2]; rifampin 0.1 μg/ml
  growth inhibition around a well in the presence of rifampin: 95 square millimeters
[2]; rifampin 0.3 μg/ml
  growth inhibition around a well in the presence of rifampin: 154 square millimeters
[3]; 4 μg
  growth inhibition around a well: 0 square millimeters
[3]; 10 μg
  growth inhibition around a well: 0 square millimeters
[4]; rifampin 0 μg/ml
  growth inhibition around a well in the presence of rifampin: 0 square millimeters
[4]; rifampin 0.1 μg/ml
  growth inhibition around a well in the presence of rifampin: 113 square millimeters
[4]; rifampin 1.0 μg/ml
  growth inhibition around a well in the presence of rifampin: 133 square millimeters
[5]; 4 μg of compound per well
  growth inhibition around a well: 0 square millimeters
[5]; 10 μg of compound per well
  growth inhibition around a well: 0 square millimeters
[6]; 4 μg
  growth inhibition around a well: 38 square millimeters
[6]; 10 μg
  growth inhibition around a well: 79 square millimeters

## OA-Ala-Thr-DSer-cy[Dab-Dab-DPhe-Leu-Dab-Dab-Thr-] [NAB 749]
[1]; rifampin 0 μg/ml
  growth inhibition around a well in the presence of rifampin: 20 square millimeters
[1]; rifampin 0.1 μg/ml
  growth inhibition around a well in the presence of rifampin: 20 square millimeters
[1]; rifampin 0.3 μg/ml
  growth inhibition around a well in the presence of rifampin: 13 square millimeters
[2]; rifampin 0 μg/ml
  growth inhibition around a well in the presence of rifampin: 20 square millimeters
[2]; rifampin 0.1 μg/ml
  growth inhibition around a well in the presence of rifampin: 154 square millimeters
[2]; rifampin 0.3 μg/ml
  growth inhibition around a well in the presence of rifampin: 201 square millimeters
[3]; 4 μg
  growth inhibition around a well: 20 square millimeters
[3]; 10 μg
  growth inhibition around a well: 38 square millimeters
[4]; rifampin 0 μg/ml
  growth inhibition around a well in the presence of rifampin: 133 square millimeters
[4]; rifampin 0.1 μg/ml
  growth inhibition around a well in the presence of rifampin: 133 square millimeters
[4]; rifampin 1.0 μg/ml
  growth inhibition around a well in the presence of rifampin: 177 square millimeters
[5]; 4 μg of compound per well
  growth inhibition around a well: 113 square millimeters
[5]; 10 μg of compound per well
  growth inhibition around a well: 158 square millimeters
[6]; 4 μg
  growth inhibition around a well: 20 square millimeters
[6]; 10 μg
  growth inhibition around a well: 28 square millimeters

## OA-Thr-Abu-cy[Dab-Dab-DLeu-Leu-Dab-Dab-Thr-] [NAB 718]
[1]; rifampin 0 μg/ml
  growth inhibition around a well in the presence of rifampin: 0 square millimeters
[1]; rifampin 0.1 μg/ml
  growth inhibition around a well in the presence of rifampin: 0 square millimeters
[1]; rifampin 0.3 μg/ml
  growth inhibition around a well in the presence of rifampin: 0 square millimeters
[2]; rifampin 0 μg/ml
  growth inhibition around a well in the presence of rifampin: 0 square millimeters
[2]; rifampin 0.1 μg/ml
  growth inhibition around a well in the presence of rifampin: 0 square millimeters
[2]; rifampin 0.3 μg/ml
  growth inhibition around a well in the presence of rifampin: 38 square millimeters
[3]; 4 μg
  growth inhibition around a well: 0 square millimeters
[3]; 10 μg
  growth inhibition around a well: 0 square millimeters
[4]; rifampin 0 μg/ml
  growth inhibition around a well in the presence of rifampin: 0 square millimeters
[4]; rifampin 0.1 μg/ml
  growth inhibition around a well in the presence of rifampin: 13 square millimeters
[4]; rifampin 1.0 μg/ml
  growth inhibition around a well in the presence of rifampin: 133 square millimeters
[5]; 4 μg of compound per well
  growth inhibition around a well: 0 square millimeters
[5]; 10 μg of compound per well
  growth inhibition around a well: 0 square millimeters
[6]; 4 μg
  growth inhibition around a well: 0 square millimeters
[6]; 10 μg
  growth inhibition around a well: 0 square millimeters

## OA-Thr-Abu-cy[Dab-Dab-DPhe-Leu-Dab-Dab-Leu-] [NAB 719]
[1]; rifampin 0 μg/ml
  growth inhibition around a well in the presence of rifampin: 0 square millimeters
[1]; rifampin 0.1 μg/ml
  growth inhibition around a well in the presence of rifampin: 0 square millimeters
[1]; rifampin 0.3 μg/ml
  growth inhibition around a well in the presence of rifampin: 7 square millimeters
[2]; rifampin 0 μg/ml
  growth inhibition around a well in the presence of rifampin: 0 square millimeters
[2]; rifampin 0.1 μg/ml
  growth inhibition around a well in the presence of rifampin: 154 square millimeters
[2]; rifampin 0.3 μg/ml
  growth inhibition around a well in the presence of rifampin: 133 square millimeters
[3]; 4 μg
  growth inhibition around a well: 0 square millimeters
[3]; 10 μg
  growth inhibition around a well: 0 square millimeters
[4]; rifampin 0 μg/ml
  growth inhibition around a well in the presence of rifampin: 7 square millimeters
[4]; rifampin 0.1 μg/ml
  growth inhibition around a well in the presence of rifampin: 79 square millimeters
[4]; rifampin 1.0 μg/ml
  growth inhibition around a well in the presence of rifampin: 95 square millimeters
[5]; 4 μg of compound per well
  growth inhibition around a well: 7 square millimeters
[5]; 10 μg of compound per well
  growth inhibition around a well: 50 square millimeters
[6]; 4 μg
  growth inhibition around a well: 0 square millimeters
[6]; 10 μg
  growth inhibition around a well: 0 square millimeters

## OA-Thr-Asn-cy[Dab-Dab-DPhe-Leu-Dab-Dab-Thr-] [NAB 746]
[1]; rifampin 0 μg/ml
  growth inhibition around a well in the presence of rifampin: 0 square millimeters
[1]; rifampin 0.1 μg/ml
  growth inhibition around a well in the presence of rifampin: 7 square millimeters
[1]; rifampin 0.3 μg/ml
  growth inhibition around a well in the presence of rifampin: 0 square millimeters
[2]; rifampin 0 μg/ml
  growth inhibition around a well in the presence of rifampin: 0 square millimeters
[2]; rifampin 0.1 μg/ml
  growth inhibition around a well in the presence of rifampin: 64 square millimeters
[2]; rifampin 0.3 μg/ml
  growth inhibition around a well in the presence of rifampin: 95 square millimeters
[3]; 4 μg
  growth inhibition around a well: 0 square millimeters
[3]; 10 μg
  growth inhibition around a well: 0 square millimeters
[4]; rifampin 0 μg/ml
  growth inhibition around a well in the presence of rifampin: 0 square millimeters
[4]; rifampin 0.1 μg/ml
  growth inhibition around a well in the presence of rifampin: 79 square millimeters
[4]; rifampin 1.0 μg/ml
  growth inhibition around a well in the presence of rifampin: 95 square millimeters
[5]; 4 μg of compound per well
  growth inhibition around a well: 0 square millimeters
[5]; 10 μg of compound per well
  growth inhibition around a well: 13 square millimeters
[6]; 4 μg
  growth inhibition around a well: 0 square millimeters
[6]; 10 μg
  growth inhibition around a well: 20 square millimeters

## OA-Thr-DAla-cy[Dab-Dab-DPhe-Thr-Dab-Dab-Thr-] [NAB 738]
[1]; rifampin 0 μg/ml
  growth inhibition around a well in the presence of rifampin: 0 square millimeters
[1]; rifampin 0.3 μg/ml
  growth inhibition around a well in the presence of rifampin: 13 square millimeters
[2]; rifampin 0 μg/ml
  growth inhibition around a well in the presence of rifampin: 0 square millimeters
[2]; rifampin 0.1 μg/ml
  growth inhibition around a well in the presence of rifampin: 95 square millimeters
[2]; rifampin 0.3 μg/ml
  growth inhibition around a well in the presence of rifampin: 154 square millimeters
[3]; 4 μg
  growth inhibition around a well: 0 square millimeters
[3]; 10 μg
  growth inhibition around a well: 0 square millimeters
[4]; rifampin 0 μg/ml
  growth inhibition around a well in the presence of rifampin: 0 square millimeters
[4]; rifampin 0.1 μg/ml
  growth inhibition around a well in the presence of rifampin: 133 square millimeters
[4]; rifampin 1.0 μg/ml
  growth inhibition around a well in the presence of rifampin: 177 square millimeters
[5]; 4 μg of compound per well
  growth inhibition around a well: 0 square millimeters
[5]; 10 μg of compound per well
  growth inhibition around a well: 64 square millimeters
[6]; 4 μg
  growth inhibition around a well: 0 square millimeters
[6]; 10 μg
  growth inhibition around a well: 0 square millimeters
